The values that follow come from patent US12702715B2, “Targeted RNA degradation allows precision repurposing of protein-targeted small molecule medicines to RNA” (University of Florida Research Foundation, Incorporated, priority 2020, dated 2026).

For one assay, the system named is PDCD4. The experiment in a line: PDCD4 Western blot in MDA-MB-231 cells. Type of assay: cell-based, human. Here is the method:
Western Blotting. MDA-MB-231 cells were plated in 6-well plates. When they reached ~50% confluency, they were treated with vehicle (DMSO) or 4. After 48 h, the medium was removed, and the cells were washed with 1×DPBS. The cells were harvested by trypsinization, and total protein was extracted with MPER (Mammalian Protein Extraction Reagent, Thermo Scientific) as previously described^6. Protein concentrations were determined by using a Pierce Micro BCA Protein Assay kit (Fisher Scientific). Approximately 10 μg of total protein from each sample obtained above was resolved on a SDS-polyacrylamide gel (10%), and the protein were transferred to a PVDF ([…]) membrane. After blocking the membrane in 1×TBST with 5% (w/v) nonfat milk for 60 min, the membrane was incubated with 1×TBST containing 5% milk and PDCD4 (Cell Signaling Technology, 9535S) primary antibody (1:1000 dilution) at 4° C. overnight. The membrane was washed with 1×TBST for 10 min three times and then incubated with 1:2000 anti-rabbit IgG horseradish-peroxidase secondary antibody conjugate (Cell Signaling Technology, 7074S) in 1× TBST containing 5% (w/v) milk for about 2 h. After washing with 1×TBST for 10 min three times, PDCD4 protein was detected by using SuperSignal West Pico Chemiluminescent Substrate (Pierce Biotechnology). After imaging, the membrane was stripped with 1× Stripping Buffer (200 mM glycine with 0.1% SDS, pH 2.2) for 120 min at RT, and β-actin level was detected as described for PDCD4 except using β-actin (Cell Signaling Technology, 3700S) primary antibody (1:5000 dilution). ImageJ software was used for quantification of the protein bands.

A further assay deals with pre-miR-21. The experiment in a line: Cellular Chem-CLIP and C-Chem-CLIP to study occupancy of pre-miR-21. Type of assay: cell-based, human. On the procedure: Cellular Chem-CLIP and C-Chem-CLIP to Study Occupancy of pre-miR-2L MDA-MB-231 cells in 100 mm dishes (~90% confluency) were treated with 4 or 5 for 6 h at 37° C. Then the cells were washed with 1×DPBS and cross-linked under 365 nm light for 10 min in ice cold 1×DPBS. The cells were harvested by scraping and pelleted by centrifugation. Total RNA was extracted by using the miRNeasy mini kit (Qiagen) per the manufacturer's protocol. Approximately 50 μg of total RNA was clicked to disulfide biotin azide as described in the “In Vitro Chem-CLIP and Competitive Chem-CLIP (C-Chem-CLIP)” section. Streptavidin beads (10 μL) were added, and the samples were incubated, with shaking, for 2 h at 37° C. The beads were then washed with 1× Wash Buffer (10 mM Tris-HCl, pH 7.0, 4 M NaCl, 1 mM EDTA) three times and then once with nanopure water. Bound RNAs were eluted from the beads by incubating with 200 μL of 1:1 TCEP (200 mM) pre-reduced with 600 mM of K2CO3 for 30 min at 37° C. The reaction was quenched by treatment with an equal volume of 400 mM of iodoacetamide for 30 min at room temperature. The supernatant was collected, and the beads were washed once with nanopure water: the water was added to the eluant. The combined eluant was cleaned up using RNAClean XP beads according to the manufacturer's protocol. The obtained RNA was then subjected to RT-qPCR. Enrichment of pre-miR-21 was calculated as previously described^6. Cellular C-Chem-CLIP was completed by pre-treating with 1 (1 or 5 μM) or 3 (1 or 5 μM) for 6 h, followed by dosing with 4 (5 μM) for 6 h. Sample preparation and data analysis were completed as described above for cellular Chem-CLIP studies.

Another assay relates to pre-miR-21 WT RNA. The experiment in a line: In vitro Chem-CLIP and C-Chem-CLIP, pre-miR-21 WT. Type of assay: binding, human. Here is the method:
In Vitro Chemical Cross-linking and Isolation by Pull Down (Chem-CLIP) and Competitive Chem-CLIP (C-Chem-CLIP). Growth medium [RMPI 1640 medium with L-glutamine & 25 mM HEPES (Corning)] was inactivated by heating at 95° C. to for 15 min and slowly cooling to room temperature at benchtop. Pre-miR-21 labeled with ^32P at the 5′-end (~10,000 counts) was folded in growth medium by heating at 95° C. for 1 min and slowly cooling to room temperature. To the samples was added Chem-CLIP probe 4 (1, 5, 20 or 100 μM) or negative control probe 5 (1, 5, 20 or 100 μM), and the mixtures were incubated at 37° C. for 1 h. The samples were then cross-linked by irradiation with 365 nm light for 10 min. The Chem-CLIP probe 4 or control probe 5, whether or not cross-linked to the RNA, was then clicked to disulfide biotin azide (10 mM in DMSO; 10 μL per sample; 1168-10, Click Chemistry Tools) by incubating in a solution containing 1×HEPES buffer (25 mM, pH 7), sodium ascorbate (10 μL/sample, 250 mM in H2O), CuSO4 (10 μL/sample, 50 mM in H2O), THPTA (10 μL/sample, 50 mM in H2O) for 2 h at 37° C. […] The radioactive signal from bound RNAs (on the beads) and unbound RNAs (from the wash steps) were measured by using a Beckman Coulter LS6500 Liquid Scintillation Counter. Enrichment of pre-miR-21 was calculated as previously described^6. […]

For `CCOC(=O)C1=C(Nc2ccccc2)S/C(=C\c2ccc(OCCOCCOCCOCCNC(=O)NCCN3CCN(c4ccc5[nH]c(-c6c(N)c7c(F)cccc7[nH]c6=O)nc5c4)CC3)c(O)c2)C1=O` [Compound 2, Ribotac-Dovitinib], the PDCD4 expression entry in the assay with PDCD4 (MDA-MB-231, 1 and 2 at 1 μM, LNA-21 at 100 nM) is given as “derepressed”. Moreover, the “fold more potent downstream effects than 1” value in the assay on PDCD4 (PTEN, PDCD4, invasion) is 10 fold.
Turning to `CN1CCN(c2ccc3nc(-c4c(N)c5c(F)cccc5[nH]c4=O)[nH]c3c2)CC1` [Compound 1, Dovitinib, reference compound], the “competition of pull-down of pre-miR-21 with 4” value in the assay with pre-miR-21 (increasing concentrations, 4 constant) is listed as “similarly diminished”. Besides, the “competition of enrichment of pre-miR-21 by 4” value with pre-miR-21 WT RNA (in vitro C-Chem-CLIP) was “competed off”. Further, the “derepression of PDCD4 expression” value in the assay on PDCD4 (5 μM) is ~ 60%.
For `C#CCCC1(CCC(=O)NCCN2CCN(c3ccc4[nH]c(-c5c(N)c6c(F)cccc6[nH]c5=O)nc4c3)CC2)N=N1` [Compound 4], the “reaction with / pull-down of pre-miR-21 in cells” value with pre-miR-21 (MDA-MB-231) was “reacted with pre-miR-21”. In addition, the “enrichment of 32P-labeled pre-miR-21 WT” value with pre-miR-21 WT RNA (1, 5, 20 or 100 μM) is reported as “dose-dependently enriched”.
